Measured values reported in US6043265A, “Isoxazolyl endothelin antagonists” (Bristol-Myers Squibb Co., priority 1998, dated 2000).
Like-named read-outs stand apart in the source and are kept apart here.

Tests used:
[1] = Oral bioavailability in fasted male rats (intravenous and oral dosing); format: in vivo; conditions: for bioavailability / AUC(0-inf): rat, plasma; for bioavailability: from dose-normalized AUC.infin. oral vs intravenous; for AUC(0-inf): fasted male rats (n=3), read-out: area under the curve AUC.infin.
Description: Fasted male rats (n=3) were given a single dose of the title compound either intravenously (10 μmol/kg as a 10 minute infusion) or orally by gavage (20 μmol/kg). The dosing vehicle was propylene glycol for the intravenous dose and PEG-400 for the oral dose. Following dosing, the average plasma concentration of the title compound was measured over time, and the area under the curve AUC.infin.

[2] = tested on: big ET-1 pressor response; assay: Pressor testing (i): inhibition of big ET-1 pressor response after intravenous dosing; format: in vivo; conditions: Rattus norvegicus, 5 min, read-out: dose causing 50% inhibition of the big ET-1 pressor response (ED50), human big ET-1 1 nmol/kg i.v. before and 5 minutes after compound, conscious normotensive Sprague-Dawley rats
Description: (i) Intravenous injection of big ET-1 into conscious, normotensive rats produces a transient increase in mean arterial pressure which can be blunted by an ETA receptor antagonist.
A bolus injection of human big ET-1 (1 nmol/kg, intravenously; vehicle: 1% Tween 80 in 5% NaHCO3) was administered to Sprague-Dawley rats before and 5 minutes after intravenous injection of an amount of the title compound (0.01 μmol/kg (n=10), 0.03 μmol/kg (n=10), and 0.1 μmol/kg (n=3)). Peak pressor responses were compared to determine the amount of inhibition caused by the title compound.

[3] = Pre-systemic metabolic stability within the gastrointestinal tract, in vivo (bile duct cannulated rats); conditions: rat, po, 29 mg/kg
Description: Bile duct cannulated rats were fasted overnight. The title compound was administered as a solution in 5% sodium bicarbonate (ca. 8 mg/ml, 29 mg/kg) by oral gavage. Gastrointestinal tract homogenate was made in 3 volumes of water and an equal volume of acetonitrile was added.

[4] = tested on: big ET-1 pressor response; assay: Pressor testing (ii): inhibition of big ET-1 pressor response over time after oral dosing; format: in vivo, Sprague-Dawley rats; conditions: 3 μmol/kg, human big ET-1 1 nmol/kg i.v., n=3
Description: Peak pressor responses were compared to determine the amount of inhibition caused by the title compound at these time intervals.

[5] = in vitro; conditions: rat, cecal contents, pH 7.4
Description: Rat cecal contents were quickly placed in cold, degassed potassium phosphate buffer (50 mM, pH 7.4, purged by nitrogen bubbling for at least 30 minutes). Each incubation contained ca. 0.1 g of cecal contents/ml. […] Samples were analyzed with HPLC-UV and LC-MS on a YMC-ODS AQ column (4.6×150 mm, 3μ) eluted with an ammonium acetate/acetonitrile gradient and detected at 270 nm.

| Structure (SMILES) | bioavailability ([1]; 20 umol/kg, fasted male rats) | dose-normalized AUC.infin. values, intravenous versus oral ([1]; fasted male rats, 10 μmol/kg intravenous vs 20 μmol/kg oral) | AUC(0-inf) ([1]; 10 umol/kg, intravenous, 10 μmol/kg as a 10 minute infusion, propylene glycol vehicle) | AUC(0-inf) ([1]; 20 umol/kg, oral gavage, 20 μmol/kg, PEG-400 vehicle) | ED50 [2] | metabolites in the gastrointestinal tract [3] | remaining at 9 h [3] | % Inhibition (big ET-1 pressor response) ([4]; 15 minutes after dosing) | % Inhibition (big ET-1 pressor response) ([4]; 105 minutes after dosing) | % Inhibition (big ET-1 pressor response) ([4]; 195 minutes after dosing) | remaining at 1 h, 200 µM [5] |
| --- | --- | --- | --- | --- | --- | --- | --- | --- | --- | --- | --- |
| Cc1onc(NS(=O)(=O)c2ccccc2-c2ccc(-c3ncco3)cc2CN2CCC(C)(C)C2=O)c1C [N-(4,5-dimethyl-3-isoxazolyl)-2'-[(3,3-dimethyl-2-oxo-1-pyrrolidinyl)methyl]-4'-(2-oxazolyl)[1,1'-biphenyl]-2-sulfonamide] | ~78% |  |  |  |  |  |  |  |  |  |  |
| Cc1onc(NS(=O)(=O)c2ccccc2-c2ccc(-c3ncco3)cc2CN(C)C(=O)CC(C)(C)C)c1C [N-[[2'-[[(4,5-dimethyl-3-isoxazolyl)amino]sulfonyl]-4-(2-oxazolyl)[1,1'-biphenyl]-2-yl]methyl]-N,3,3-trimethylbutanamide] | ~100% | not statistically different | 31.3 ± 2.9 µM·h | 72.8 ± 17.3 µM·h | 0.03 µmol/kg | metabolites were not observed | 100% | 57 ± 7% | 65 ± 13% | 74 ± 8% | 100% |
